# Measurements as given in the supplement of paper PMC10307832.
# How the values were obtained:
# Experiment in all cases: relative viability (nuclei count vs DMSO), 5 days (fraction); higher = more cells survive
# [1] = compound: CS(=O)(=O)N1CCN(Cc2cc3nc(-c4cccc5[nH]ncc45)nc(N4CCOCC4)c3s2)CC1 [Pictilisib] + NC(=O)Nc1cc(-c2cccc(F)c2)sc1C(=O)N[C@H]1CCCNC1 [AZD7762] (partner 0.2 µM)
# Summary of the method: (§1)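 Relative viability equals treated-well nuclei counts divided by vehicle-well nuclei counts. Counts came from 4× images of lung cancer cell lines grown in 1536-well plates for 5 days after pin-tool dosing on the day after seeding. Dosing used one drug alone or a fixed anchor-drug dose plus five library-drug doses (not always all listed) in √10 steps, and values are medians of duplicate plates.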
# [2] = compound: NC1(c2ccc(-c3nc4ccn5c(=O)[nH]nc5c4cc3-c3ccccc3)cc2)CCC1 [MK-2206] + O=C(CCCCCCC(=O)Nc1ccccc1)NO [Vorinostat] (partner 1 µM)
# Summary of the method: as §1
# [3] = compound: NC1(c2ccc(-c3nc4ccn5c(=O)[nH]nc5c4cc3-c3ccccc3)cc2)CCC1 [MK-2206] + CCNC(=O)c1noc(-c2cc(C(C)C)c(O)cc2O)c1-c1ccc(CN2CCOCC2)cc1 [Luminespib] (partner 0.01 µM)
# Summary of the method: as §1
# [4] = compound: CS(=O)(=O)N1CCN(Cc2cc3nc(-c4cccc5[nH]ncc45)nc(N4CCOCC4)c3s2)CC1 [Pictilisib] + CC(=O)Nc1cccc(-n2c(=O)n(C3CC3)c(=O)c3c(Nc4ccc(I)cc4F)n(C)c(=O)c(C)c32)c1 [Trametinib] (partner 0.02 µM)
# Summary of the method: as §1
# [5] = compound: NC1(c2ccc(-c3nc4ccn5c(=O)[nH]nc5c4cc3-c3ccccc3)cc2)CCC1 [MK-2206] + Cc1nc(Nc2ncc(C(=O)Nc3c(C)cccc3Cl)s2)cc(N2CCN(CCO)CC2)n1 [Dasatinib] (partner 0.075 µM)
# Summary of the method: as §1
Cell Line,relative viability ([1]; first compound 0.02 µM),relative viability ([1]; first compound 0.06325 µM),relative viability ([1]; first compound 0.6325 µM),relative viability ([1]; first compound 2 µM),relative viability ([2]; first compound 0.01 µM),relative viability ([2]; first compound 0.3162 µM),relative viability ([2]; first compound 1 µM),relative viability ([3]; first compound 0.01 µM),relative viability ([3]; first compound 0.03162 µM),relative viability ([3]; first compound 0.3162 µM),relative viability ([3]; first compound 1 µM),relative viability ([4]; first compound 0.02 µM),relative viability ([4]; first compound 0.06325 µM),relative viability ([4]; first compound 0.6325 µM),relative viability ([4]; first compound 2 µM),relative viability ([5]; first compound 0.01 µM),relative viability ([5]; first compound 0.03162 µM),relative viability ([5]; first compound 0.3162 µM),relative viability ([5]; first compound 1 µM),relative viability ([2]; first compound 0.03162 µM)
SW 900,0.747,0.623,0.431,0.352,0.527,0.554,0.299,0.167,0.197,0.175,0.17,0.899,0.753,0.683,0.364,0.573,0.636,0.531,0.476,–
NCI-H650,0.806,0.95,0.998,0.655,0.455,0.345,0.428,0.747,0.86,0.897,0.788,1.03,0.969,0.8,0.5,0.448,0.442,0.453,0.326,0.414
NCI-H460,0.72,0.66,0.627,0.183,0.677,0.717,0.599,0.035,0.0282,0.0298,0.024,0.157,0.215,0.0736,0.0266,0.417,0.579,0.37,0.338,0.785
NCI-H2085,0.963,1.06,0.354,0.287,0.693,0.751,0.653,0.508,0.393,0.489,0.384,0.443,0.471,0.2,0.26,0.257,0.234,0.253,0.242,0.754
EPLC-272H,0.25,0.279,0.173,0.14,0.513,0.482,0.435,0.585,0.263,0.338,0.323,0.275,0.278,0.212,0.126,0.486,0.333,0.256,0.306,0.401
201T,0.637,0.571,0.41,0.448,0.963,0.988,1.09,1.01,1.05,1.09,1.03,0.737,0.686,0.659,0.585,0.623,0.581,0.553,0.525,1.06
NCI-H3122,0.961,1.07,0.871,0.348,0.924,0.944,0.871,0.118,0.1,0.0816,0.084,0.201,0.202,0.161,0.122,0.801,0.789,0.84,0.118,0.969
NCI-H838,0.906,0.747,0.928,0.809,0.705,0.647,0.654,0.288,0.303,0.244,0.282,0.431,0.453,0.374,0.246,0.282,0.279,0.288,0.268,0.714
NCI-H1755,0.452,0.387,0.354,0.298,0.774,0.582,0.636,0.411,0.636,0.469,0.346,0.821,0.667,0.718,0.327,0.443,0.424,0.406,0.35,0.698
HCC-15,1.23,1.25,0.989,0.78,0.821,0.78,0.854,0.404,0.232,0.413,0.292,0.359,0.334,0.237,0.178,0.578,0.643,0.442,0.422,0.828
NCI-H2087,1.39,1.29,1.29,0.952,0.469,0.791,0.862,0.158,0.155,0.187,0.128,0.204,0.165,0.138,0.153,0.71,0.962,0.918,0.775,1.1
LCLC-103H,0.803,0.728,0.588,0.456,0.764,0.701,0.743,0.983,1.06,0.975,0.89,0.649,0.711,0.501,0.558,0.459,0.497,0.461,0.355,0.827
LK-2,0.357,0.392,0.147,0.0792,0.26,0.334,0.221,0.173,0.199,0.212,0.17,0.738,0.654,0.558,0.257,0.231,0.299,0.327,0.19,0.287
NCI-H2342,0.444,0.515,0.34,0.414,0.841,0.821,0.733,0.751,0.655,0.77,0.677,0.77,0.747,0.724,0.476,0.369,0.296,0.282,0.276,0.802
NCI-H522,0.967,0.865,0.673,0.571,1.07,0.828,0.836,1.28,1.31,1.17,1.19,0.884,0.721,0.572,0.43,0.98,0.842,0.857,0.894,1.02
ChaGo-K-1,0.858,0.913,0.864,0.784,0.754,0.763,0.702,0.668,0.661,0.541,0.679,0.813,0.873,0.79,0.631,0.61,0.721,0.55,0.447,0.856
NCI-H1666,0.814,0.763,0.804,0.532,1.03,1.04,0.916,0.961,1.02,1.13,1.01,0.802,0.892,0.622,0.575,0.751,0.838,0.818,0.744,1.07
EKVX,0.732,0.703,0.41,0.315,0.681,0.648,0.693,0.991,0.872,0.801,0.69,0.424,0.287,0.268,0.193,0.73,0.522,0.536,0.569,0.684
NCI-H322M,0.55,0.607,0.495,0.339,0.844,0.944,0.977,0.91,0.95,0.825,0.882,0.516,0.529,0.407,0.394,0.258,0.268,0.288,0.284,0.936
HARA,0.246,0.357,0.302,0.245,0.391,0.455,0.59,0.798,1.06,0.77,0.839,0.626,0.715,0.479,0.129,0.321,0.302,0.329,0.227,0.539
NCI-H1437,1.13,1.07,1.09,0.903,0.879,0.964,0.821,1.13,1.13,0.855,1.27,0.472,0.418,0.289,0.194,0.425,0.424,0.412,0.398,0.846
BEN,0.809,0.808,0.745,0.447,0.54,0.514,0.555,0.404,0.484,0.274,0.495,1.02,0.953,0.962,0.636,0.265,0.332,0.321,0.362,0.582
LXF-289,1.19,1.14,1.08,0.849,0.736,0.867,0.78,0.661,0.722,0.728,0.771,0.693,0.691,0.705,0.385,0.212,0.251,0.254,0.203,0.797
NCI-H358,0.542,0.521,0.335,0.267,0.659,0.646,0.729,0.0868,0.829,0.234,0.318,0.132,0.141,0.122,0.104,0.169,0.167,0.15,0.147,0.697
NCI-H1993,0.79,0.722,0.459,0.442,0.765,0.611,0.504,0.44,0.827,0.671,0.565,0.543,0.469,0.523,0.488,0.29,0.524,0.556,0.51,0.962
NCI-H727,0.636,0.545,0.607,0.31,1.18,1.25,0.901,0.328,0.306,0.337,0.345,0.409,0.367,0.344,0.331,0.408,0.328,0.394,0.433,1.33
LOU-NH91,0.803,0.718,0.567,0.495,0.938,0.887,0.826,0.344,0.303,0.32,0.373,0.867,0.715,0.68,0.567,0.628,0.638,0.571,0.375,0.933
